Columns and labels:
[1] = system: Raji human B-cell lymphoma cells; assay: Cell-titer-blue viability, Raji; type: cell-based; conditions: in presence of sulfobutyl ether-β-cyclodextrin, 72 h
Protocol: (§1) The anti-tumoral efficacy of a panel of 7 different Au complexes, ATM/Disulfiram, the standard therapeutic Cisplatin and well known antitumoral CuDTC (see Table 2) was tested on Jurkat human T-cell leukemia and Raji human B-cell lymphoma cells. […] 24 h later, test compound were added in the presence of sulfobutyl ether-β-cyclodextrin (30 fold disulfiram concentration) in various dilutions (100-0.01 μM). All concentrations were applied in triplicate. […] The “Factor of Selectivity for T-cell Leukemia” was calculated by division of IC50 on Raji cells/IC50 on Jurkat cells.

[2] = system: Jurkat human T-cell leukemia cells; assay: Cell-titer-blue viability, Jurkat; type: cell-based; conditions: for selectivity for Jurkat IC50 Raji/IC50 Jurkat (Factor of Selectivity for T-cell Leukemia): IC50 on Raji cells/IC50 on Jurkat cells; for IC50: in presence of sulfobutyl ether-β-cyclodextrin, 72 h
Protocol: as §1

[3] = system: H209 SCLC cells; assay: H209 SCLC tumor relapse model in mice; type: in vivo, nu/nu mice; conditions: after 6 weeks DKFZ-00608 15 mg/kg daily in 60 mM sulfobutyl ether beta-cyclodextrin
Protocol: The inventors wanted to compare the efficacy of DKFZ-00608 on human SCLC tumors with standard therapy in vivo. […] Followed by DKFZ-00608 in 60 mM sulfobutyl ether beta-cyclodextrin (15 mg/kg daily) for 6 weeks • DKFZ-00608 in 60 mM sulfobutyl ether beta-cyclodextrin (15 mg/kg daily) for 6 weeks. Tumor sizes were determined 2× per week for the first 9 weeks, thereafter, once per week.

| Compound | IC50 [1] [nM] | selectivity for Jurkat IC50 Raji/IC50 Jurkat (Factor of Selectivity for T-cell Leukemia) [2] | IC50 [2] [nM] | animals with no palpable tumors [3] |
| --- | --- | --- | --- | --- |
| CCN(CC)C(=S)[S-].CCN(CC)C(=S)[S-].[Cu+2] [CuDTC] | 20 | 2.62 | 10 |  |
| CCN(CC)/C1=[SH]/[Au][S]/C(N(CC)CC)=[SH]\[Au][S]1 [DKFZ-00608] |  |  |  | 6 out of 10 |
| N.N.[Cl][Pt][Cl] [Cisplatin] | 2720 | 4.45 | 610 |  |

Reference: patent publication US10953099B2, “Compositions comprising a metal source, dithiocarbamate and cyclodextrin” (priority 2016, dated 2021)
